Like-named read-outs stand apart in the source and are kept apart here.
Biological target: α-glucosidase (Saccharomyces cerevisiae, UniProt P53341)
Experiment: biochemical
[1] = read-out: α-glucosidase inhibitory activity IC50
[2] = positive control 1-deoxynojirimycin, DMSO blank, read-out: α-glucosidase inhibitory activity IC50

Chain of α-glucosidase (P53341 whole entry): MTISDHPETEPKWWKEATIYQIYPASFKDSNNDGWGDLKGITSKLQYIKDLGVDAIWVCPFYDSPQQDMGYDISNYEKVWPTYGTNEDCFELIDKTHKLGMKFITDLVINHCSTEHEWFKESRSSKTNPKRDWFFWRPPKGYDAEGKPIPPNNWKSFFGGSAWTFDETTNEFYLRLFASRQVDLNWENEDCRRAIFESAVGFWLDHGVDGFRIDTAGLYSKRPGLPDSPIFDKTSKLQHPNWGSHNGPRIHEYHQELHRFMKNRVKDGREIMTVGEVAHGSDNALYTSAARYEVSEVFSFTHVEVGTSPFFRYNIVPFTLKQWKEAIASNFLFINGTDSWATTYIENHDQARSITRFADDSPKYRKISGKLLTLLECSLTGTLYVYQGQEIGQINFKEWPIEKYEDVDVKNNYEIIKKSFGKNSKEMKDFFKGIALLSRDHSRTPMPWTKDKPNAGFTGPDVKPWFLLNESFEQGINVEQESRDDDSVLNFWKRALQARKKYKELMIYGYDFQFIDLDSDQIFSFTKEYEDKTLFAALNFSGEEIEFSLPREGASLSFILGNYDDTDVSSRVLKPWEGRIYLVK

## COC1=CC(=O)C(C)(O)C1(O)C(C)=O (stereo not drawn) [Compound 8, Talaketides B]
[1]
  IC50: > 100 µM

## CCC(C)CC(C)C=C(C)C1OC(c2c(O)c(-c3ccccc3)cn(C)c2=O)CCC1C (stereo not drawn) [Compound 1, Sambutoxin A]
  IC50: 12.6 ± 0.9 µM

## CCC(C)C(=O)OC1(C)C(=O)C(C)=C(OC)CC1OC (stereo not drawn) [Compound 9, Talaketides C]
[1]
  IC50: > 100 µM

## CCC(C)C(=O)OC1(C)C(=O)C(C)=C(OC)C1O (stereo not drawn) [Compound 7, Talaketides A]
[1]
  IC50: > 100 µM

## COC1=CC(=O)C(C)(O)C(O)C1C (stereo not drawn) [Compound 12, Talaketides F]
[2]
  IC50: > 100 µM

## C/C=C/[C@@H]1Oc2c(-c3ccccc3)c[nH]c(=O)c2[C@@H]2[C@H]1CCC[C@H]2C [Compound 5, deoxyleporin B]
[1]
  IC50: 57.3 ± 1.3 µM

## C/C=C/[C@@H]1[C@H]2C[C@@H](C)CC[C@@H]2C(C)=C[C@H]1C(=O)c1c(O)c(-c2ccc(O)cc2)c[nH]c1=O [Compound 4, ilicicolin H]
[1]
  IC50: 16.5 ± 0.7 µM

## COC1=CC(=O)C(C)(O)C(O)C1C (stereo not drawn) [Compound 11, Talaketides E]
[2]
  IC50: > 100 µM

## C/C=C/[C@@H]1Oc2c(-c3ccccc3)cn(O)c(=O)c2[C@@H]2[C@H]1CCC[C@H]2C [Compound 6, leporine B]
[1]
  IC50: > 100 µM

## CC[C@H](C)C[C@@H](C)/C=C(\C)[C@@H]1O[C@H](c2c(O)c(-c3ccc(O)cc3)cn(C)c2=O)CC[C@H]1C [Compound 3, (–)-sambutoxin]
  IC50: 16.9 ± 0.6 µM

## CCC(C)CC(C)C=C(C)C1OC(c2c(O)c(-c3ccc(O)cc3)cn(C)c2=O)CC=C1C (stereo not drawn) [Compound 2, Sambutoxin B]
  IC50: 37.4 ± 1.4 µM

## COC1=CC(=O)C(C)(O)C(O)C1C (stereo not drawn) [Compound 10, Talaketides D]
[1]
  IC50: > 100 µM
